The values that follow come from patent US20070265164A1, “Active Substances for Increasing Pathogenic Defense in Plants and Methods for the Detection Thereof” (Bayer Cropscience GmbH, priority 2004, published 2007).

Holding throughout (type): in vivo
Parameters in all cases: fold induction: dose or concentration left out as unconfirmed

For assay [1], the system named is Contig2337_at, 12-oxophytodienoate reductase (OPR1). Description: GEP, barley DNA chip, probe set 1.20. The conditions noted are these: Hordeum vulgare, topical, read-out: Expression value, 1.20 Contig2337_at; for fold induction: barley leaves 6 h after spray application, rates of Table 1 (S7 500), median induction factor vs control. As for the experimental part:
(§1) Barley plants (cv. Baronesse) were grown in compost-filled pots (diameter: 10 cm) for 10 days in a controlled-environment cabinet under defined light, humidity and temperature conditions (white light, 70% atmospheric humidity, 24° C.). At the time of spray application, the seedlings were approximately 15 cm in size. The test substances selected in this example were molecules which differ markedly in their structure and which have a well documented pronounced safener effect, and other molecules which are known from the literature to have an effect on plant stress and pathogen tolerance (Table 1). The substances were prepared as stock solutions in DMSO (dimethyl sulfoxide) at c=10 mg/ml). This was used for preparing dilutions in water supplemented with 0.2% Agrotin (comprises polyvinyl alcohol, silicones, polysaccharides and pH regulators, manufacturer: Bayer CropScience AG, Monheim, Germany), as wetter, to give the application rates shown in the table. The amount of liquid for the spray application was 800 μl per pot, corresponding to 800 l/ha. For each 800 μl of spray mixture, 16 μl of EC premix: diacetone alcohol=1:6 were additionally added as formulation auxiliaries. The substances listed in Table 1 were applied to the leaves by means of a pneumatic spray pistol. Each substance was sprayed as 2 dosages, and all experiments were carried out as replicates (2 pots per substance). Sprayings with blank formulation without active ingredient were carried out as controls. After 6 hours, the leaves were harvested, frozen in liquid nitrogen and stored at −80° C. until further use. The labeled RNA probes for the DNA chip hybridization were prepared as described in the protocols (Expression Analysis, Technical Manual) from Affymetrix (Affymetrix Inc., 3380 Central Expressway, Santa Clara, Calif., USA). First, total RNA was isolated from in each case 500 mg of the harvested leaves. In each case 10 μg of total RNA was used for the first-strand and second-strand cDNA synthesis. The cDNA was amplified with T7 polymerase and simultaneously labeled with biotin-UTP. In each case, 20 μg of this biotinylated cDNA was employed for the hybridization of the barley genome array (Gene Chip Barleyl, order No.: 511012) from Affymetrix. This DNA microarray comprises DNA sequences of 22 840 genes which are composed of a total of 400 000 EST sequences. Thereafter, the DNA microarrays were washed in the Affymetrix Fluidics Station, stained with streptavidin/phycoerythrin (Molecular Probes, P/N S-866) and scanned with the matching Agilent Laser Scanner (Agilent Gene Array Scanner). The fluorescent data obtained were analyzed with the software Microarray Suite 5 from Affymetrix. After the quality had been checked, all DNA chip analyses were stored in a database. To determine the relative expression values for genes (induction factors, repression factors), test and control chips were compared with each other, and the scoring function set by the Affymetrix software was used as the basis. The 2 biological replications of one experiment were compared in each case with 2 control chips (blank formulation), and the 4 expression values obtained for each gene were used for calculating the median. These medians are shown in the results tables as induction factors. Similarity comparisons of expression profiles from different experiments and cluster analyses were carried out using the software GeneMaths 1.5 from Applied Maths (Applied Maths, Keistraat 120, 9830 Sint-Martens-Latem, Belgium).
(§2) Gene groups from specific metabolic pathways and signal transduction chains were put together by key word search in the annotations, of the genes, which were also provided by Affymetrix, and by Blast analyses (homology comparisons) of the DNA target sequences, i.e. of the positive sequence (identified on the basis of a modified expression profile) identified on the DNA chip, using gene sequences from other organisms, preferably plant organisms, with characterized functions. […]

Assay [2] concerns Contig2990_at, Chitinase (EC 3.2.1.14). Briefly: GEP, barley DNA chip, probe set 5.1. The conditions noted are these: Hordeum vulgare, topical, read-out: Expression value, 5.1 Contig2990_at; for fold induction: barley leaves 6 h after spray application, rates of Table 1 (S7 500), median induction factor vs control. As for the experimental part:
as §1, §2

For assay [3], the system named is Contig2088_s_at, Bowman-Birk type trypsin inhibitor. Briefly: GEP, barley DNA chip, probe set 2.1. As to conditions: Hordeum vulgare, topical, read-out: Expression value, 2.1 Contig2088_s_at; for fold induction: barley leaves 6 h after spray application, rates of Table 1 (S7 500), median induction factor vs control. As to the method:
as §1, §2

Assay [4] relates to Contig8905_at, Xytanase inhibitor protein. Briefly: GEP, barley DNA chip, probe set 3.1. As to conditions: Hordeum vulgare, topical, read-out: Expression value, 3.1 Contig8905_at; for fold induction: barley leaves 6 h after spray application, rates of Table 1 (S7 500), median induction factor vs control. As to the method: as §1, §2
Assay [5] has as its system Contig6194_a_at, 12-oxophytodienoic acid reductase. Briefly: GEP, barley DNA chip, probe set 1.7. As to conditions: Hordeum vulgare, topical, read-out: Expression value, 1.7 Contig6194_a_at; for fold induction: barley leaves 6 h after spray application, rates of Table 1 (S7 500), median induction factor vs control. As to the method: as §1, §2
Assay [6] deals with HI02E21u_s_at, Lipoxygenase (EC 1.13.11.12). Description: GEP, barley DNA chip, probe set 1.2. As to conditions: Hordeum vulgare, topical, read-out: Expression value, 1.2 HI02E21u_s_at; for fold induction: barley leaves 6 h after spray application, rates of Table 1 (S7 500), median induction factor vs control. As to the method: as §1, §2
The test system of assay [7] is Contig13413_at, Similar to lipases. Briefly: GEP, barley DNA chip, probe set 1.17. As to conditions: Hordeum vulgare, topical, read-out: Expression value, 1.17 Contig13413_at; for fold induction: barley leaves 6 h after spray application, rates of Table 1 (S7 500), median induction factor vs control. As to the method: as §1, §2
Assay [8] has as its system Contig88_x_at, Putative proteinase inhibitor. Briefly: GEP, barley DNA chip, probe set 2.3. The conditions noted are these: Hordeum vulgare, topical, read-out: Expression value, 2.3 Contig88_x_at; for fold induction: barley leaves 6 h after spray application, rates of Table 1 (S7 500), median induction factor vs control. As for the experimental part: as §1, §2
Assay [9] has as its system Contig2305_at, Methyljasmonate inducible lipoxygenase. Briefly: GEP, barley DNA chip, probe set 1.14. As to conditions: Hordeum vulgare, topical, read-out: Expression value, 1.14 Contig2305_at; for fold induction: barley leaves 6 h after spray application, rates of Table 1 (S7 500), median induction factor vs control. As for the experimental part: as §1, §2
In assay [10] the test system is Contig15_a_at, GDSL-motif lipase/hydrolase-like protein. Briefly: GEP, barley DNA chip, probe set 1.9. The conditions noted are these: Hordeum vulgare, topical, read-out: Expression value, 1.9 Contig15_a_at; for fold induction: barley leaves 6 h after spray application, rates of Table 1 (S7 500), median induction factor vs control. As to the method:
as §1, §2

In assay [11] the test system is Contig 4986_at, Allene oxide cyclase. Description: GEP, barley DNA chip, probe set 1.5. As to conditions: Hordeum vulgare, topical, read-out: Expression value, 1.5 Contig 4986_at; for fold induction: barley leaves 6 h after spray application, rates of Table 1 (S7 500), median induction factor vs control. As for the experimental part: as §1, §2
Assay [12] concerns Contig1736_at, Lipoxygenase 1 (EC 1.13.11.12). Description: GEP, barley DNA chip, probe set 1.10. The conditions noted are these: Hordeum vulgare, read-out: Expression value, 1.10 Contig1736_at; for fold induction: barley leaves 6 h after spray application, rates of Table 1 (S7 500), median induction factor vs control. As for the experimental part: as §1, §2
In assay [13] the test system is Contig2118_at, Peroxidase (EC 1.11.1.7), pathogen-induced. Description: GEP, barley DNA chip, probe set 4.1. As to conditions: Hordeum vulgare, topical, read-out: Expression value, 4.1 Contig2118_at; for fold induction: barley leaves 6 h after spray application, rates of Table 1 (S7 500), median induction factor vs control. As to the method:
as §1, §2

For the compound `COC(=O)C1=NN(c2ccc(Cl)cc2Cl)C(C)(C(=O)OC)C1` (stereo not drawn) [S1, Mefenpyr-dimethyl], the fold induction in [1] came to 4.89; in [2], 4.17; in assay [3], 1; in [4], 3.1; in assay [5], 12.9; in assay [6] it was 1. For the same compound, the fold induction was 1 in assay [7]; 1 in assay [8]; 1 in assay [9]; 0.35 in assay [10]; 1 in assay [11]; 1 in assay [12]. Further, in [13], the fold induction amounted to 8.69.

With `O=C(O)C1=NN(c2ccc(Cl)cc2Cl)C(c2ccc(F)cc2)C1` (stereo not drawn) [S2], the fold induction in assay [1] stood at 1; in [2], 1; in assay [3], 1; in assay [4] it was 2.53; in [5] it was 4.14; in assay [6], 1. The fold induction in [7], in assay [8], in assay [9], in assay [10], in assay [11] and in assay [12] was 1 throughout. For the same compound, in assay [13], the fold induction is 1.

For `CCOC(=O)C1=NOC(c2ccccc2)(c2ccccc2)C1` [S3, Isoxadifen-ethyl], the fold induction at 150 g/ha in assay [1] (6 h) is 1; in [2] (6 h) it was 2.77; in assay [3] (6 h) it was 4.26; in [4] (6 h) it was 2.99; in assay [5] (6 h) it was 3.25; in assay [6] (6 h) it was 40.8. Also, the fold induction at 150 g/ha was determined as 1 in assay [7] (6 h); 4.53 in [8] (6 h); 2.14 in [9] (6 h); 2.97 in [10] (6 h); 3.76 in assay [11] (6 h); 2.91 in assay [12] (6 h). In [13] (6 h), the fold induction at 150 g/ha was determined as 4.86.

As for `CCCCCC(C)OC(=O)COc1ccc(Cl)c2cccnc12` (stereo not drawn) [S4, Cloquintocet-mexyl], the fold induction in assay [1] came out at 1; in assay [2] it was 1; in assay [3], 1; in [4], 2.73; in [5], 2.17; in assay [6], 1. Further, the fold induction in [7], in assay [8], in assay [9], in assay [10], in assay [11] and in assay [12] was 1 in each case. In assay [13], the fold induction is 1.

Turning to `CCOC(=O)C(Oc1ccc(Cl)c2cccnc12)C(=O)OCC` [S5], the fold induction in assay [1] came to 1; in assay [2] it was 1; in assay [3], 1; in assay [4] it was 3.01; in assay [5], 2.81; in assay [6], 1. In addition, the fold induction was 1 in assay [7]; 1 in assay [8]; 1 in assay [9]; 0.46 in [10]; 1 in [11]; 1 in assay [12]. Besides, the fold induction in assay [13] came out at 2.33.

`NC(=O)c1ccc(C(F)(F)F)nc1O` [S6]: the fold induction in assay [1] turned out to be 1; in [2] it was 1; in [3], 1; in assay [4], 2.45; in assay [5] it was 3.16; in [6] it was 1. For the same compound, the fold induction in [7], in assay [8], in [9], in assay [10], in assay [11] and in assay [12] was 1 throughout. The fold induction in assay [13] was found to be 2.2.
